“And” between values parts separate entries of the source, which are not always exact repeats. Equal entries are not always repeated. Where two headings read alike, the source gives them in different places.
Legend:
[1] = biological target: T1, Gal-8N (galectin-8 N-terminal domain) (Homo sapiens, UniProt O00214); conditions: cited from earlier work
T1 construct: made in house
T1 sequence (O00214 19-152 limits assumed): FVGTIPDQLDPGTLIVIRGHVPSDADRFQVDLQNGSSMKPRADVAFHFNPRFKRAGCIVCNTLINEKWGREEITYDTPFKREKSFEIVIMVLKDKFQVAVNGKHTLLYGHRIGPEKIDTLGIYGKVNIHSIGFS

Gal-3 [2] = biological target: T2, Gal-3 (Homo sapiens, UniProt P17931); conditions: cited from earlier work; for Gal-3 selectivity ratio Kd (Gal-3)/Kd (Gal-8N): selectivity for Gal-8N over Gal-3 (fold)
T2 construct: made in house
T2 sequence (P17931 whole entry): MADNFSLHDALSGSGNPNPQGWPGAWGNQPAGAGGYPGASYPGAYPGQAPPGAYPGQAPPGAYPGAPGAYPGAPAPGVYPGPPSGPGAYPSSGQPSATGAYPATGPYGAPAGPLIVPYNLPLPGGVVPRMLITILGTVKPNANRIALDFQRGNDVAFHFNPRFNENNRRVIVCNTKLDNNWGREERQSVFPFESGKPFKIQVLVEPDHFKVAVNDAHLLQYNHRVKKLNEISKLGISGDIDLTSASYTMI

Gal-1 [3] = biological target: T3, Gal-1 (Homo sapiens, UniProt P09382); parameters: method as in PMID 34225180; conditions: cited from earlier work
T3 construct: made in house
T3 sequence (P09382 whole entry): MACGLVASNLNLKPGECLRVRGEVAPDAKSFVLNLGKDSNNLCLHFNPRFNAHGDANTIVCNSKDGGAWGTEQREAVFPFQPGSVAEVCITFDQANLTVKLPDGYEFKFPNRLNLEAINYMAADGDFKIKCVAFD

Gal-8N [4] = biological target: T4, Gal-8N (Homo sapiens, UniProt O00214); test: isothermal titration calorimetry (ITC), binding to Gal-8N; conditions: for ΔΔH compared to 1: difference vs compound 1
T4 construct: consisting of residues 4-158 was produced by Lund Protein Production Platform; made in house; host or cells: E. coli TUNER(DE3)
T4 sequence (O00214 4-158): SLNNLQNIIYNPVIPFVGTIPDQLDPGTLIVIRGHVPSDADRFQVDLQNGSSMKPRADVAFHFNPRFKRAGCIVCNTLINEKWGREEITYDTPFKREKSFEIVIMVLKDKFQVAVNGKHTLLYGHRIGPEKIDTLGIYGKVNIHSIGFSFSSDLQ
Description: Isothermal titration calorimetry (ITC) experiments were conducted using a Microcal PEAQ-ITC isothermal titration calorimeter (Malvern Instruments, Malvern Panalytical Ltd) at 25 °C. Lyophilized Gal-8N was first dissolved in PBS buffer (with a 4.3 mM β-mercaptoethanol) with a pH = 7.4 and Gal-8N was dialyzed with a 0.5–3 mL Slide-A-Lyzer™ 7k MWCO Dialysis Cassette in the same buffer. To remove residual lactose, Gal-8N was additionally purified using Superdex 75 Increase column equilibrated in PBS with 5% DMSO. Fractions containing Gal-8N were collected and concentrated with Amicon® Ultra-0.5 Centrifugal Filter Device with a 10k MWCO to a final concentration of about 40 µM. A280 was measured using the NanoDrop^TM One Microvolume UV-VIS spectrophotometer and the concentration of Gal-8N was calculated (ε = 11460 L mol^−1 cm^−1 was used). 16 mM stock solutions of 1, 11, and 29 were prepared in pure DMSO. The 16 mM stock solutions were diluted to 800 μM with pure PBS and then to the final concentration of 560 μM (the final content of DMSO was 5%). Titrations were performed with 19 injections of Gal-8N inhibitors 1, 11 (560 μM) and 29 (800 μM) with a following settings: reference power = 10.0 µcal s^−1, feedback = high, stir speed = 750, Initial delay = 100 s, first spacing = 200 s, the other spacings = 150 s.
Raw thermograms were exported and integrated with the NITPIC (version 2.0.7)[43] and then analyzed with SEDPHAT (version 15.2)[44],[45]. Parameter and error analysis were performed using the Monte-Carlo approach for nonlinear regression with 1000 iterations as implemented in SEDPHAT.

Gal-8C [5] = biological target: T5, Gal-8C (Homo sapiens, UniProt O00214); parameters: method as in PMID 34225180; conditions: cited from earlier work
T5 construct: than to the C-terminal domain (Gal-8C)
T5 sequence (O00214 187-317 limits assumed): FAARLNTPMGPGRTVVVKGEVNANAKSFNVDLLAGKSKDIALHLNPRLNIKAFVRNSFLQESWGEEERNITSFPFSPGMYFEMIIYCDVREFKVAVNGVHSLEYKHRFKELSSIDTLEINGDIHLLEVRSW

Gal-8N [6] = biological target: T4, Gal-8N; test: ligand efficiency (LE) and ligand-lipophilicity efficiency (LLE) calculations; conditions: for LLE: from Gal-8N Kd and clogP; for LE: from Gal-8N Kd and number of non-hydrogen atoms
Gal-1 [7] = biological target: T3, Gal-1; test: competitive fluorescence polarisation assay, Gal-1; type: binding; conditions: for Kd: competitive FP, mean ± SEM of n = 4 to 8, 20 °C; for Gal-1 selectivity ratio Kd (Gal-1)/Kd (Gal-8N): ratio of FP Kd values
Description: (§1) Human galectins-1, -3, and -8N were expressed and purified as described previously[8],[23],[24]. Competitive fluorescence polarization assays were performed with a PHERAstar FS plate reader with software PHERAstar Mars version 2.10 R3 (BMG, Offenburg, Germany) and Tecan Spark multimode microplate reader (Tecan Trading AG, Switzerland), where a fluorescence anisotropy of fluorescent-tagged probes was measured by excitation at 485 nm and emission at 520 nm. Experiments were performed at 20 °C with Gal-1 at 0.5 µM, Gal-3 at 0.2 µM, and Gal-8N at 0.4 µM. Fluorescent probes used for experiments were 3,3′-dideoxy-3-[4-(fluorescein-5-yl-carbonylaminomethyl)-1H-1,2,3-triazol-1-yl]-3′-(3,5-di-methoxybenzamido)-1,1′-sulfanediyl-di-β-D-galactopyranoside at 0.02 µM for Gal-1 and -3 and 2-(fluorescein-5-yl-carbonylamino)ethyl β-D-galactopyranosyl(1-4)-2-acetamido-2-deoxy-β-D-glucopyranosyl(1–3)-β-D-galactopyranosyl(1–4)-β-D-glucopyranoside at 0.1 µM for Gal-8N in each well. Compounds were first dissolved in pure DMSO at 20 mM concentration and later diluted in 5% DMSO in PBS solution to 5-7 different concentrations. Each concentration was tested in duplicate. The highest inhibitor concentrations tested were 1.5 mM. The average values of Kd and SEM (standard error mean) were calculated from 4 to 8 duplicate measurements, showing 10–90% inhibition.

Gal-3 [8] = biological target: T2, Gal-3; test: competitive fluorescence polarisation assay, Gal-3; type: binding; conditions: for Kd: competitive FP, mean ± SEM of n = 4 to 8, 20 °C, read-out: Kd Gal-3; for Gal-3 selectivity ratio Kd (Gal-3)/Kd (Gal-8N): ratio of FP Kd values
Description: as §1

[9] = biological target: T1, Gal-8N (galectin-8 N-terminal domain); test: competitive fluorescence polarisation assay, Gal-8N; type: binding; conditions: competitive FP, mean ± SEM of n = 4 to 8, 20 °C; read-out: Kd Gal-8N
Description: as §1

Gal-8C [10] = biological target: T5, Gal-8C; test: competitive fluorescence polarisation assay, Gal-8C; type: binding; conditions: for Kd: competitive FP, mean ± SEM of n = 4 to 8; for Gal-8C selectivity ratio Kd (Gal-8C)/Kd (Gal-8N): ratio of FP Kd values
[11] = 25 °C, PBS buffer, 1:1 binding model, n = 2

Row | Compound | LLE (Gal-8N [6]) | LE (Gal-8N [6]) | Kd (Gal-1 [7]) [µM] | Kd (Gal-3 [8]) [µM] | Gal-3 selectivity ratio Kd (Gal-3)/Kd (Gal-8N) (Gal-3 [8]) | Kd [9] [µM] | Kd (Gal-8C [10]) [µM] | Gal-8C selectivity ratio Kd (Gal-8C)/Kd (Gal-8N) (Gal-8C [10]) | Gal-1 selectivity ratio Kd (Gal-1)/Kd (Gal-8N) (Gal-1 [7]) | also measured
1 | Cn1c(CO[C@@H]2[C@@H](O)[C@@H](Sc3ccc(Cl)c(Cl)c3)O[C@H](CO)[C@@H]2O)nc2ccc(C(=O)O)cc21 [Compound 1, reference compound] | – | – | – | – | – | – | – | – | – | fold more potent than D-galactose (Gal-8N) [1]: ~ 5000 fold; Gal-3 selectivity ratio Kd (Gal-3)/Kd (Gal-8N) (Gal-3 [2]): 2.8; Gal-1 selectivity ratio Kd (Gal-1)/Kd (Gal-8N) (Gal-1 [3]): 72; -TΔS (Gal-8N [4]; [11]): 3.35 kcal/mol and 3.35 ± 3.11 kcal/mol; Kd (Gal-8N [4]; [11]): 5 µM; ΔG (Gal-8N [4]; [11]): -7.22 kcal/mol and -7.22 ± 0.14 kcal/mol; ΔH (Gal-8N [4]; [11]): -10.5 kcal/mol and -10.5 ± 2.87 kcal/mol; -TΔS (Gal-8N [4]; TRIS buffer): 4.54 kcal/mol; Kd (Gal-8N [4]; TRIS buffer): 4.5 µM; ΔG (Gal-8N [4]; TRIS buffer): -7.34 kcal/mol; ΔH (Gal-8N [4]; TRIS buffer): -12 kcal/mol; Gal-8C selectivity ratio Kd (Gal-8C)/Kd (Gal-8N) (Gal-8C [5]): 422
2 | O=C(O)[C@H](CC1CCCCC1)O[C@@H]1[C@@H](O)[C@@H](Sc2ccc(Cl)c(Cl)c2)O[C@H](CO)[C@@H]1O [Compound 2] | – | – | – | – | – | – | – | – | – | Kd [1]: 12 µM; Kd (Gal-3 [2]; Fig. 1, earlier inhibitors, read-out: Kd: galectin-3): 82 µM; selectivity over Gal-3 (Gal-3 [2]; Gal-8N over Gal-3): 6.8 fold
3 | Cn1c(CO[C@@H]2C=CO[C@H](CO)[C@@H]2O)nc2ccc(C(=O)O)cc21 [Compound 3] | – | – | – | – | – | – | – | – | – | Gal-3 selectivity ratio Kd (Gal-3)/Kd (Gal-8N) (Gal-3 [2]): 14
4 | C#CCO[C@@H]1[C@@H](OCc2nc3ccc(C(=O)O)cc3n2C)[C@@H](O)[C@@H](CO)O[C@@H]1Sc1ccc(Cl)c(Cl)c1 [Compound 11] | 2.01 | 0.226 (kcal/mol)/heavy atom | 10 ± 0.71 | 1.4 ± 0.2 | 1.75 | 0.8 ± 0.09 | 390 ± 14 | 488 | – | -TΔS (Gal-8N [4]; [11]): 6.69 ± 2.2 kcal/mol and 6.69 kcal/mol; Kd (Gal-8N [4]; [11]): 1.3 µM; ΔG (Gal-8N [4]; [11]): -8.01 ± 0.12 kcal/mol and -8.01 kcal/mol; ΔH (Gal-8N [4]; [11]): -14.6 ± 1.9 kcal/mol and -14.6 kcal/mol; ΔΔH compared to 1 (Gal-8N [4]): –17 kJ mol^−1; ΔΔH compared to 29 (Gal-8N [4]; difference vs compound 29): –4 kJ mol^−1
5 | Cn1c(CO[C@H]2[C@@H](O)[C@@H](CO)O[C@H](Sc3ccc(Cl)c(Cl)c3)[C@@H]2OCC2CCCCC2)nc2ccc(C(=O)O)cc21 [Compound 19] | -0.926 | 0.180 (kcal/mol)/heavy atom | 76 ± 15 | 21 ± 1.5 | 5.1 | 4.1 ± 0.61 | 662 ± 27 | 161 | 18.5 | –
6 | Cn1c(CO[C@H]2[C@@H](O)[C@@H](CO)O[C@H](Sc3ccc(Cl)c(Cl)c3)[C@@H]2OCC2CCC2)nc2ccc(C(=O)O)cc21 [Compound 25] | 0.593 | 0.204 (kcal/mol)/heavy atom | 16 ± 0.5 | 9.4 ± 1.9 | 5.9 | 1.6 ± 0.07 | 383 ± 21 | 239 | 10 | –
7 | Cn1c(CO[C@H]2[C@@H](O)[C@@H](CO)O[C@H](Sc3ccc(Cl)c(Cl)c3)[C@@H]2OCC(=O)O)nc2ccc(C(=O)O)cc21 [Compound 29] | 2.84 | 0.227 (kcal/mol)/heavy atom | 49 ± 3.6 | 3.3 ± 0.2 | 6.6 | 0.5 ± 0.03 | 449 ± 39 | 898 | 98 | -TΔS (Gal-8N [4]; [11]): 5.26 ± 0.72 kcal/mol and 5.26 kcal/mol; Kd (Gal-8N [4]; [11]): 0.6 µM; ΔG (Gal-8N [4]; [11]): -8.44 ± 0.096 kcal/mol and -8.44 kcal/mol; ΔH (Gal-8N [4]; [11]): -13.6 ± 0.72 kcal/mol and -13.6 kcal/mol; ΔΔH compared to 1 (Gal-8N [4]): –13 kJ mol^−1
8 | CO[C@@H]1[C@@H](OCc2nc3ccc(C(=O)O)cc3n2C)[C@@H](O)[C@@H](CO)O[C@@H]1Sc1ccc(Cl)c(Cl)c1 [Compound 32] | 2.08 | 0.231 (kcal/mol)/heavy atom | 16 ± 0.8 | 4.5 ± 0.7 | 3.5 | 1.3 ± 0.05 | 358 ± 29 | 275 | 12.3 | –
9 | O=C[C@H](O)[C@@H](O)[C@@H](O)[C@H](O)CO [D-galactose] | – | – | – | – | – | – | – | – | – | Kd (Gal-3 [2]; read-out: affinity for Gal-3): ~5000 µM

Continued, in another order:

Row | LLE (Gal-8N [6]) | LE (Gal-8N [6]) | Kd (Gal-1 [7]) [µM] | Kd (Gal-3 [8]) [µM] | Gal-3 selectivity ratio Kd (Gal-3)/Kd (Gal-8N) (Gal-3 [8]) | Kd [9] [µM] | Kd (Gal-8C [10]) [µM] | Gal-8C selectivity ratio Kd (Gal-8C)/Kd (Gal-8N) (Gal-8C [10]) | Gal-1 selectivity ratio Kd (Gal-1)/Kd (Gal-8N) (Gal-1 [7]) | Compound | also measured
10 | 1.26 | 0.177 (kcal/mol)/heavy atom | 26 ± 1.1 | 1.2 ± 0.2 | 2.6 | 0.46 ± 0.03 | 159 ± 4 | 346 | 57 | Cn1c(CO[C@H]2[C@@H](O)[C@@H](CO)O[C@H](Sc3ccc(Cl)c(Cl)c3)[C@@H]2OCc2cn(-c3ccccc3C(=O)O)nn2)nc2ccc(C(=O)O)cc21 [Compound 16a] | –
11 | 1.11 | 0.173 (kcal/mol)/heavy atom | 37 ± 1.1 | 2.9 ± 0.4 | 4.5 | 0.65 ± 0.05 | 100 ± 2 | 154 | 57 | Cn1c(CO[C@H]2[C@@H](O)[C@@H](CO)O[C@H](Sc3ccc(Cl)c(Cl)c3)[C@@H]2OCc2cn(-c3cccc(C(=O)O)c3)nn2)nc2ccc(C(=O)O)cc21 [Compound 16b] | –
12 | 0.888 | 0.167 (kcal/mol)/heavy atom | 45 ± 0.8 | 6.2 ± 1.1 | 5.6 | 1.1 ± 0.07 | 201 ± 37 | 183 | 41 | Cn1c(CO[C@H]2[C@@H](O)[C@@H](CO)O[C@H](Sc3ccc(Cl)c(Cl)c3)[C@@H]2OCc2cn(-c3ccc(C(=O)O)cc3)nn2)nc2ccc(C(=O)O)cc21 [Compound 16c] | –
